In ChEMBL document CHEMBL1201862, “PubChem BioAssay data set” (2004):
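Method: 48-hour compound exposure of cells in 96-well plates, five concentrations, linear interpolation of endpoints. GI50 is the concentration that inhibits growth by half.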 The source made the active and inactive calls. Rule as the data show it: active = GI50 up to about 1.1 µM and inactive = higher.

Tests used:
Test in all cases: NCI anticancer screen, dose series, 48 h
UO-31 = system: UO-31
NCI-H522 = system: NCI-H522
HCT-15 = system: HCT-15
SK-MEL-2 = system: SK-MEL-2
CCRF-CEM = system: CCRF-CEM
786-0 = system: 786-0
UACC-257 = system: UACC-257
HOP-62 = system: HOP-62
PC-3 = system: PC-3
T47D = system: T47D
HOP-92 = system: HOP-92
CAKI-1 = system: CAKI-1
OVCAR-4 = system: OVCAR-4
COLO 205 = system: COLO 205
EKVX = system: EKVX
Hs-578T = system: Hs-578T
SNB-75 = system: SNB-75
SN12C = system: SN12C
SW-620 = system: SW-620
NCI-H23 = system: NCI-H23
MOLT-4 = system: MOLT-4
HL-60 = system: HL-60
OVCAR-8 = system: OVCAR-8
ACHN = system: ACHN
SK-MEL-5 = system: SK-MEL-5
KM12 = system: KM12
OVCAR-3 = system: OVCAR-3
LOX IMVI = system: LOX IMVI
DU-145 = system: DU-145
NCI/ADR-RES = system: NCI/ADR-RES
SNB-19 = system: SNB-19
MDA-MB-231 = system: MDA-MB-231
RPMI-8226 = system: RPMI-8226
TK-10 = system: TK-10
SF-539 = system: SF-539
K562 = system: K562
NCI-H226 = system: NCI-H226
SF-268 = system: SF-268
MCF7 = system: MCF7
IGROV-1 = system: IGROV-1
HCC 2998 = system: HCC 2998
M14 = system: M14
SK-OV-3 = system: SK-OV-3
U-251 = system: U-251
RXF 393 = system: RXF 393
HT-29 = system: HT-29
UACC-62 = system: UACC-62
MDA-MB-435 = system: MDA-MB-435
HCT-116 = system: HCT-116
A549 = system: A549
BT-549 = system: BT-549
MDA-N = system: MDA-N
SF-295 = system: SF-295
Malme-3M = system: Malme-3M
SK-MEL-28 = system: SK-MEL-28
NCI-H460 = system: NCI-H460
OVCAR-5 = system: OVCAR-5
A498 = system: A498

Measured: GI50

CC1/C(=N/O)CC(c2ccccc2)N(N=O)C1c1ccccc1 (stereo not drawn)
inactive: UO-31 > 100 µM | NCI-H522 > 100 µM | SK-MEL-2 > 100 µM | CCRF-CEM > 100 µM | 786-0 > 100 µM | UACC-257 > 100 µM | HOP-62 > 100 µM | PC-3 > 100 µM | T47D > 100 µM | HOP-92 > 100 µM | CAKI-1 > 100 µM | OVCAR-4 > 100 µM | COLO 205 > 100 µM | EKVX > 100 µM | Hs-578T > 100 µM | SNB-75 91.4 µM | SN12C > 100 µM | SW-620 > 100 µM | NCI-H23 > 100 µM | MOLT-4 > 100 µM | HL-60 > 100 µM | OVCAR-8 > 100 µM | ACHN > 100 µM | SK-MEL-5 > 100 µM | KM12 > 100 µM | OVCAR-3 > 100 µM | LOX IMVI > 100 µM | DU-145 > 100 µM | NCI/ADR-RES > 100 µM | SNB-19 > 100 µM | MDA-MB-231 > 100 µM | RPMI-8226 > 100 µM | TK-10 > 100 µM | SF-539 > 100 µM | K562 > 100 µM | NCI-H226 > 100 µM | SF-268 > 100 µM | MCF7 > 100 µM | IGROV-1 > 100 µM | HCC 2998 > 100 µM | M14 > 100 µM | SK-OV-3 82.4 µM | U-251 > 100 µM | RXF 393 > 100 µM | HT-29 > 100 µM | UACC-62 > 100 µM | MDA-MB-435 > 100 µM | HCT-116 > 100 µM | A549 > 100 µM | BT-549 > 100 µM | MDA-N > 100 µM | SF-295 > 100 µM | Malme-3M > 100 µM | SK-MEL-28 > 100 µM | NCI-H460 > 100 µM
> 100 µM: HCT-15

O=P1(C(O)/C=C/c2ccccc2)N(Cc2ccccc2)[C@@H]2CCCC[C@H]2N1Cc1ccccc1 (stereo partly drawn)
6.14 µM: HCT-15
inactive: UO-31 4.55 µM | NCI-H522 2.42 µM | SK-MEL-2 2.62 µM | CCRF-CEM 5.19 µM | 786-0 5.94 µM | UACC-257 4.32 µM | HOP-62 11.1 µM | OVCAR-5 10.6 µM | PC-3 3.14 µM | T47D 4.76 µM | HOP-92 2.7 µM | CAKI-1 13.1 µM | OVCAR-4 5.38 µM | COLO 205 2.42 µM | EKVX 6.7 µM | Hs-578T 3.65 µM | SNB-75 12 µM | SN12C 3.32 µM | SW-620 6.87 µM | NCI-H23 4.26 µM | MOLT-4 2.93 µM | HL-60 2.71 µM | OVCAR-8 3.74 µM | ACHN 3.94 µM | SK-MEL-5 4.58 µM | KM12 4.66 µM | OVCAR-3 6.64 µM | LOX IMVI 3.8 µM | DU-145 12.9 µM | NCI/ADR-RES 9.53 µM | SNB-19 6.22 µM | MDA-MB-231 10.8 µM | RPMI-8226 2.14 µM | TK-10 7.23 µM | K562 3.74 µM | NCI-H226 4.51 µM | SF-268 4.05 µM | MCF7 3.24 µM | IGROV-1 3.41 µM | HCC 2998 3.9 µM | A498 3.02 µM | M14 4.39 µM | SK-OV-3 24 µM | U-251 4.21 µM | RXF 393 7.29 µM | HT-29 3.67 µM | UACC-62 6.98 µM | MDA-MB-435 3.67 µM | HCT-116 3.54 µM | A549 4.62 µM | BT-549 15 µM | MDA-N 4.62 µM | SF-295 4.42 µM | Malme-3M 2.98 µM | SK-MEL-28 11.2 µM | NCI-H460 3.55 µM
